Measurements taken from US6706740B2, “Fungicidal heterocyclic aromatic amides and their compositions, methods of use and preparation” (Dow AgroSciences LLC, priority 1999, dated 2004).
Like-named read-outs stand apart in the source and are kept apart here.

How the values were obtained:
[1] = system: Mycosphaerella graminicola (Septoria tritici—SEPTTR); experiment: In vitro fungal growth inhibition, Mycosphaerella graminicola (SEPTTR); type: cell-based; conditions: for inhibition at 25 ppm: Zymoseptoria tritici, read-out: SEPTTR in vitro Growth Inhibition
[2] = system: Rhizoctonia solani (RHIZSO); experiment: microbe, parasite or virus in culture; type: cell-based; conditions: for inhibition at 25 ppm: Rhizoctonia solani, read-out: RHIZSO in vitro Growth Inhibition
[3] = system: Phytophthora infestans (PHYTIN); experiment: microbe, parasite or virus in culture; type: cell-based; conditions: for inhibition at 25 ppm: Phytophthora infestans, read-out: PHYTIN in vitro Growth Inhibition
[4] = system: Puccinia recondita—PUCCRT; experiment: Brown Rust of Wheat, in vivo whole plant, 24 Hour Protectant; conditions: 100 ppm spray, wheat, 24 hour protectant, control of fungal infection vs untreated plants; for pest or weed control at 100 ppm: Puccinia, read-out: PUCCRT in vivo 1 Day Protectant
Ustilago maydis (USTIMA) = experiment: microbe, parasite or virus in culture; type: cell-based; conditions: for inhibition at 25 ppm: Mycosarcoma maydis, read-out: USTIMA in vitro Growth Inhibition
Septoria tritici—SEPTTR = experiment: Leaf Blotch of Wheat, in vivo whole plant, 24 Hour Protectant; conditions: 100 ppm spray, wheat, 24 hour protectant, control of fungal infection vs untreated plants; for pest or weed control at 100 ppm: Zymoseptoria tritici, 24 h, read-out: SEPTTR in vivo 1 Day Protectant
[5] = system: Stagonospora nodorum (Leptosphaeria nodorum—LEPTNO); experiment: In vitro fungal growth inhibition, Stagonospora nodorum (LEPTNO); type: cell-based; conditions: for inhibition at 25 ppm: Leptosphaeria, read-out: LEPTNO in vitro Growth Inhibition
[6] = system: Leptosphaeria nodorum—LEPTNO; experiment: Glume Blotch of Wheat, in vivo whole plant, 24 Hour Protectant; conditions: 100 ppm spray, wheat, 24 hour protectant, control of fungal infection vs untreated plants; for pest or weed control at 100 ppm: Leptosphaeria, read-out: LEPTNO in vivo 1 Day Protectant
[7] = system: Magnaporthe grisea (Pyricularia oryzae—PYRIOR); experiment: microbe, parasite or virus in culture; type: cell-based; conditions: for inhibition at 25 ppm: Pyricularia oryzae, read-out: PYRIOR in vitro Growth Inhibition
Erysiphe graminis—ERYSGT = experiment: Powdery Mildew of Wheat, in vivo whole plant, 24 Hour Protectant; conditions: 100 ppm spray, wheat, 24 hour protectant, control of fungal infection vs untreated plants; for pest or weed control at 100 ppm: Erysiphe, read-out: ERYSGT in vivo 1 Day Protectant
[8] = system: Phytophthora infestans—PHYTIN; experiment: whole plant or invertebrate; type: in vivo; conditions: for pest or weed control at 100 ppm: Phytophthora, in Solanum lycopersicum, 24 h, read-out: PHYTIN in vivo 1 Day Protectant

SMILES | inhibition at 25 ppm ([1]; 25 ppm in growth medium) | inhibition at 25 ppm [2] | inhibition at 25 ppm [3] | PUCCRT in vivo 1 Day Protectant [4] | inhibition at 25 ppm (Ustilago maydis (USTIMA)) | pest or weed control at 100 ppm (Septoria tritici—SEPTTR) | inhibition at 25 ppm ([5]; 25 ppm in growth medium) | pest or weed control at 100 ppm [6] | inhibition at 25 ppm [7] | pest or weed control at 100 ppm (Erysiphe graminis—ERYSGT) | pest or weed control at 100 ppm [8] | pest or weed control at 100 ppm [4] | other results
COC(=O)C(COC(=O)C(COC(=O)C(C)C)Cc1ccccc1)NC(=O)c1nccc(OC)c1O (centres unmarked) [Compound 349] | < 80% | < 80% | < 80% | + + | < 80% | < 25% | < 80% | < 25% | < 80% | < 25% | < 25% | – | –
COc1ccnc(C(=O)NC(COC(=O)C(C)Cc2ccccc2)C(=O)OC(C)C)c1O (centres unmarked) [Compound 351] | < 80% | < 80% | < 80% | + + | > 80% | < 25% | < 80% | 25 to 74% | < 80% | < 25% | < 25% | – | –
COc1ccnc(C(=O)NC(COC(=O)CC(C)OC(=O)C(C)C)C(=O)OC(C)C)c1O (centres unmarked) [Compound 352] | < 80% | < 80% | < 80% | – | < 80% | < 25% | < 80% | < 25% | < 80% | < 25% | < 25% | 25 to 74% | –
COc1ccnc(C(=O)NC(COC(=O)CC(C)OC(=O)CCc2ccccc2)C(=O)OC(C)C)c1O (centres unmarked) [Compound 353] | < 80% | < 80% | < 80% | + + | < 80% | < 25% | < 80% | < 25% | < 80% | < 25% | < 25% | – | –
COc1ccnc(C(=O)NC(COC(=O)CC(C)O[Si](C)(C)C(C)(C)C)C(=O)OC(C)C)c1O (centres unmarked) [Compound 354] | – | < 80% | < 80% | + + | < 80% | < 25% | – | < 25% | < 80% | 25 to 74% | < 25% | – | inhibition at 25 ppm [1]: < 80%; inhibition at 25 ppm [5]: < 80%
COc1ccnc(C(=O)NC(COC(=O)C(Cc2ccccc2)C(C)OC(=O)C(C)C)C(=O)OC(C)C)c1O (centres unmarked) [Compound 355] | < 80% | < 80% | < 80% | – | < 80% | < 25% | < 80% | < 25% | < 80% | < 25% | < 25% | 25 to 74% | –
COc1ccnc(C(=O)NC(COC(=O)C(Cc2ccccc2)C(C)OC(=O)c2ccccc2)C(=O)OC(C)C)c1O (centres unmarked) [Compound 356] | < 80% | < 80% | < 80% | – | < 80% | 25 to 74% | < 80% | 25 to 74% | < 80% | < 25% | < 25% | 25 to 74% | –
COc1ccnc(C(=O)NC(COC(=O)C(Cc2ccccc2)C(C)O[Si](C)(C)C(C)(C)C)C(=O)OC(C)C)c1O (centres unmarked) [Compound 357] | – | < 80% | < 80% | + + | < 80% | < 25% | – | 25 to 74% | < 80% | < 25% | < 25% | – | inhibition at 25 ppm [1]: < 80%; inhibition at 25 ppm [5]: < 80%
COc1ccnc(C(=O)NC(COC(=O)CCc2ccccc2)C(=O)OC(C)COC(=O)C(C)C)c1O (centres unmarked) [Compound 358] | < 80% | < 80% | < 80% | – | < 80% | 25 to 74% | < 80% | 25 to 74% | < 80% | < 25% | < 25% | 25 to 74% | –
COc1ccnc(C(=O)NC(COC(=O)CCc2ccccc2)C(=O)OC(C)COC(=O)C(C)C)c1O (centres unmarked) [Compound 359] | – | – | – | + + | – | – | – | – | – | – | – | – | SEPTTR in vitro Growth Inhibition ([1]; 25 ppm in growth medium): − (less than 80% growth inhibition); RHIZSO in vitro Growth Inhibition [2]: − (key: +: at least 80% growth inhibition; −: less than 80% growth inhibition); PHYTIN in vitro Growth Inhibition ([3]; 25 ppm in growth medium): − (less than 80% growth inhibition); USTIMA in vitro Growth Inhibition (Ustilago maydis (USTIMA)): − (key: +: at least 80% growth inhibition; −: less than 80% growth inhibition); SEPTTR in vivo 1 Day Protectant (Septoria tritici—SEPTTR): + +; LEPTNO in vitro Growth Inhibition ([5]; 25 ppm in growth medium): − (less than 80% growth inhibition); LEPTNO in vivo 1 Day Protectant [6]: + (25-74% control of fungal infection); PYRIOR in vitro Growth Inhibition ([7]; 25 ppm in growth medium): − (less than 80% growth inhibition); ERYSGT in vivo 1 Day Protectant (Erysiphe graminis—ERYSGT): − (<25% control of fungal infection); PHYTIN in vivo 1 Day Protectant ([8]; 100 ppm spray, tomato, 24 hour protectant, control of fungal infection vs untreated plants): − (<25% control of fungal infection)
COc1ccnc(C(=O)NC(C(=O)OCC(C)C)C(C)OC(=O)C(C)Cc2ccccc2)c1O (centres unmarked) [Compound 360] | < 80% | < 80% | < 80% | – | < 80% | 25 to 74% | < 80% | – | < 80% | < 25% | < 25% | 25 to 74% | LEPTNO in vivo 1 Day Protectant [6]: + +
COc1ccnc(C(=O)N[C@H](C(=O)O[C@@H](C)[C@H](OC(=O)C(C)C)[C@@H](Cc2ccccc2)C(=O)OCc2ccccc2)[C@@H](C)OC(C)=O)c1O [Compound 361] | > 80% | < 80% | > 80% | + + | < 80% | < 25% | < 80% | 25 to 74% | > 80% | < 25% | < 25% | – | –
COc1ccnc(C(=O)NC2COC(=O)CC(c3ccccc3)C(=O)OC2)c1O (centres unmarked) [Compound 375] | < 80% | < 80% | < 80% | – | < 80% | 25 to 74% | < 80% | 25 to 74% | < 80% | < 25% | < 25% | < 25% | –
COc1ccnc(C(=O)NC2CC(=O)OCC(C)COC2=O)c1O (centres unmarked) [Compound 378] | < 80% | < 80% | < 80% | – | < 80% | < 25% | < 80% | 25 to 74% | < 80% | < 25% | < 25% | < 25% | –
COc1ccnc(C(=O)N[C@@H]2C(=O)O[C@@H](C)C[C@@H](C)C(=O)O[C@@H]2C)c1O [Compound 381] | > 80% | < 80% | < 80% | – | < 80% | < 25% | > 80% | < 25% | < 80% | < 25% | < 25% | 25 to 74% | –
COc1ccnc(C(=O)N[C@H]2COC(=O)[C@H](Cc3ccccc3)[C@@H](O)[C@H](C)OC2=O)c1O [Compound 383] | < 80% | < 80% | < 80% | – | < 80% | < 25% | < 80% | < 25% | < 80% | < 25% | < 25% | 25 to 74% | –
